Laboratory results as given in patent publication US10722523B2, “Chemoimmunotherapy for epithelial cancer” (THE REGENTS OF THE UNIVERSITY OF CALIFORNIA, priority 2015, dated 2020).

Tests used:
TRAMP-C2 tumors = assay: s.c. TRAMP-C2 tumor model with adoptive T cell transfer (ATCT); type: in vivo, mouse
Text: Immunogenic TRAMP-C2 cells were s.c. inoculated into WT or Tcrβ^−/− mice. […] Immunogenic TRAMP-C2 cells were s.c. inoculated into WT or Rag1^−/− −×OT-1 mice (no B cells), that harbor CD8^+ T cells specific for chicken ovalbumin which is not expressed by TRAMP-C2 cells. […] All results are means±s.e.m. Mann-Whitney and t tests were used to calculate statistical significance.
For adoptive T cell transfer (ATCT) CD8^+ T cells were isolated from single cell suspensions, prepared from spleens and lymph nodes as described above, using CD8α-specific microbeads and MACS-columns (both Miltenyi Biotec GmbH, Bergisch Gladbach, Germany), and 5×10^6 CD8^+ T cells were transferred intraperitoneally (i.p.; FIG. 14a-j). […] For adoptive splenocytes transfer (ACT), single cell suspensions prepared from spleens were transferred i.p., with one total spleen injected per mouse. Labelling with 5-(and 6-) carboxyfluorescein diacetate succinimidyl ester (CFSE; Molecular Probes, Eugene, Oreg.) was done according to manufacturer's protocol. […] Purity was analyzed on a Beckman Coulter Cyan ADP flow cytometer and was always >98%.

Myc-Cap (MC) cells = assay: Cell death and autophagy of Myc-Cap cells in vitro (Annexin V/PI, LC3A flow cytometry); type: cell-based, mouse
Text: (§1) All results are means±s.e.m.
For adoptive T cell transfer (ATCT) CD8^+ T cells were isolated from single cell suspensions, prepared from spleens and lymph nodes as described above, using CD8α-specific microbeads and MACS-columns (both Miltenyi Biotec GmbH, Bergisch Gladbach, Germany), and 5×10^6 CD8^+ T cells were transferred intraperitoneally (i.p.; FIG. 14a-j). For adoptive B cell transfer (ABCT), B cells (B220^+/CD19^+) were isolated from single cell suspensions prepared from spleens using CD19- and B220-specific microbeads and MACS-columns, and 5×10^6 B cells were transferred i.p. (FIG. 4g-h, FIG. 12n,o). For adoptive splenocytes transfer (ACT), single cell suspensions prepared from spleens were transferred i.p., with one total spleen injected per mouse. Labelling with 5-(and 6-) carboxyfluorescein diacetate succinimidyl ester (CFSE; Molecular Probes, Eugene, Oreg.) was done according to manufacturer's protocol. 5×10^6 CD8^+ T cells or 7×10^6 B cells were transferred (equal to one spleen per mouse; FIG. 5a-i and FIG. 14k-q). For combined adoptive B and T cell transfer (FIG. 5j-1, FIG. 14r-t), T cells were isolated from WT-FVB mice immunized with a Myc-Cap cell lysate as previously described^10. […] The extent of cell death was determined by flow cytometry, showing that more than 90% of cells were positive for Annexin V and PI. The dead cells were injected subcutaneously (s.c.) into WT-FVB mice. Seven days later, T cells were isolated from single cell suspensions of spleen and LN using a Pan T cell isolation Kit (Miltenyi Biotec). B cells were isolated from spleens of naïve FVB-WT or FVB-Tgfbr2^ΔB mice using a Pan B cell isolation kit (Miltenyi Biotec). MC-tumor bearing Rag1^−/− mice received 5×10^6 T cells with or without 5×10^6 B cells (98% pure) from WT or Tgfbr2^ΔB mice. Purity was analyzed on a Beckman Coulter Cyan ADP flow cytometer and was always >98%.

serum IgA, IgG = assay: Serum IgA and IgG ELISA in tumor-bearing mice; type: in vivo, mouse; conditions: TRAMP and MC-tumor models, oxaliplatin alone
Protocol: Anti-SV40 Tag immunoglobulin ELISA was performed as previously described^33. IgA and IgG ELISA kits were purchased from eBioscience, and used according to manufacturer's protocols. Tumoral single cell suspension has been prepared as described above in the flow cytometry section, and was washed 2-3 times with 1×PBS/2mMEDTA/2% FCS, to remove soluble IgA. Thereafter, about 3×10^6 cells/24-well were plated in either 10% FCS/DMEM or Hybridoma medium (Life Technology). After 24 hrs, the supernatants were analysed for IgA content. Media without cells were used as controls.

[1] = IgA production and immune parameters in tumor-free mice; type: in vivo, mouse; conditions: LD, tumor-free WT or Tgfbr2ΔB mice
Protocol: as §1
For lymphocytes isolated from spleen and lymph nodes, standard protocols using filters have been used. Lymphocytes were isolated from human blood using Ficoll-Paque PLUS (GE Healthcare Life Science) according to manufacturer's recommendations. […] Moreover, Il10 and β-actin mRNA expression were analyzed on single cell level by flow cytometry in combination with CD45, IgA and IL-10 protein staining, using FlowRNA II Assay kit (Affymetrix eBioscience) according to manufacturer's protocols^9. Cells were analyzed on a Beckman Coulter Cyan ADP flow cytometer. Data were analyzed using FlowJo software (Treestar). […]
Anti-SV40 Tag immunoglobulin ELISA was performed as previously described^33. […] After 24 hrs, the supernatants were analysed for IgA content. […]

Myc-Cap (MC) tumors = assay: s.c. Myc-Cap (MC) prostate tumor model; type: in vivo, mouse
Text: (§2) All TRAMP mice, their derivatives and s.c. Myc-Cap transplantation were in the FVB genetic background and their basic immune parameters are shown in FIG. 15a-m. For s.c. TRAMP-C2 tumors, C57BL/6 mice were used. In both s.c. tumors, 2-3×10^6 cells/mouse were transplanted. More detailed information is as follows.
(§3) Mouse treatment studies were “matched design control trials.” Accordingly, mice were randomly chosen and paired based on sex (male), age (FIG. 6a) and tumor size. For transplanted tumor models, tumor size was defined by the median tumor volume (e.g. 400 mm^3, for late treatments, FIG. 6a,f). For TRAMP transgenic tumor models, treatment decisions were made based on age and mice were randomly chosen including a control littermate. An identification code was assigned to each tumor-bearing mouse both in the transplanted and transgenic models, and the investigators were blinded to treatment allocation at the time of tumor volume measurement, autopsy and analysis.
2×10^6 Myc-Cap^11 or 3×10^6 TRAMP-C2^12 cells (purchased from ATCC) were s.c. injected into the right flank. Tumors were measured every 2-3 days using a caliper. Tumor volumes were calculated as width^2×length/2.
B cells were depleted as previously described^13. Mice were weekly injected (i.p.) with a mixture of monoclonal antibodies, each at 150 μg/mouse: rat anti-mouse CD19 (clone 1D3), rat anti-mouse B220 (clone RA36B2), and mouse anti-mouse CD22 (clone CY34). After 48 hrs, the mice were injected with a secondary antibody (mouse anti-rat kappa chain; GeneTex) at 150 μg/mouse. In addition, mice were injected weekly, but not on the same day, with 250 μg/mouse rat anti-mouse CD20 (Genentech). Rat anti-mouse IgG2a and IgG1 were used as isotype controls. Mice were treated for 3 weeks in total (FIG. 1g; FIG. 7i-p). […]

TRAMP prostate tumors = assay: TRAMP spontaneous prostate cancer model, weekly low dose oxaliplatin; type: in vivo, mouse; conditions: for prostate tumor regression 30 days after lymphocyte transfer: TRAMP
Text: as §2
C57BL/6 and FVB control mice were purchased from Charles River Laboratories and CD45.1 mice^1 were purchased from Jackson Laboratory, and all were bred at the University of California San Diego (UCSD) animal facility. C57BL/6-Tg(TRAMP)8247Ng/J (TRAMP mice)^2 were backcrossed to the FVB strain for more than 10 generations. The median survival of TRAMP-FVB mice was 23 weeks compared to 52 weeks for TRAMP-C57BL/6 mice. TRAMP mice were crossed with B cell-deficient (Jh^−/−) mice^3, CTL-deficient (Cd8a^−/−) mice^4 or Rag1^−/− mice, which lack both B and T cells^5, all in the FVB-background. OT-I mice were obtained from Taconic^6. Tgfbr2^F/F (FVB-background) mice were obtained from Dr. Hal Moses at Vanderbilt University^7. Tcrb^−/−, Cd19-Cre, Il10^−/− and CD45.1 mice were purchased from the Jackson Laboratory. IgA gene-deficient (Iga^−/−) mice^8 were obtained from Baylor College of Medicine. Pdl1/2^−/− mice were obtained from Genentech (San Francisco, Calif.). Cd19-Cre and Iga^−/− mice were backcrossed to the FVB strain for more than 10 generations. All mice were maintained in filter-topped cages on autoclaved food and water at the UCSD animal facility and all experiments were performed in accordance with UCSD and NIH guidelines and regulations.
as §3
Anti-PD-L1 antibody was i.v. injected at 10 mg/kg once, followed by 5 mg/kg bi-weekly. Mice were treated for three weeks for a total of 7 doses/animal.

[2] = test system: tumor-infiltrating B cells and CD8+ T cells; assay: Flow cytometry / Q-RT-PCR of tumor-infiltrating lymphocytes in TRAMP and MC tumors; type: in vivo, mouse
Protocol: For lymphocytes isolated from spleen and lymph nodes, standard protocols using filters have been used. Lymphocytes were isolated from human blood using Ficoll-Paque PLUS (GE Healthcare Life Science) according to manufacturer's recommendations. For lymphocyte isolation from tumors (mouse and human), tumors were cut into small pieces and incubated in dissociation solution (RPMI medium supplemented with 5% FBS, collagenase type I (200 U/ml), collagenase type IV (200 U/ml), and DNase I (100 μg/ml) for 30 min at 37° C. After incubation, cell suspensions were passed through a 50 μm cell strainer and washed twice. For large tumors (≥0.7 g), hematopoietic cells were pre-enriched using density gradient centrifugation (Percoll or Ficoll), and red blood cells were lysed (RBC Lysis buffer, multi-species; eBioscience). For blocking of Fc-mediated interactions, mouse cells were pre-incubated with 0.5-1 μg of purified anti-mouse CD16/CD32 (93) per 100 μl and human cells were incubated with FcR blocking reagent (Miltenyi Biotec). Isolated cells were stained with labeled antibodies in PBS with 2% FCS and 2 mM EDTA or cell staining buffer (Biolegend). Dead cells were excluded based on staining with Live/Dead fixable dye (eBioscience). For intracellular cytokine staining, cells were restimulated (Myc-Cap cell lysate, PMA/ionomycin or PMA/ionomycin/LPS, as indicated) in the presence of a protein transport inhibitor cocktail containing Brefeldin A and Monensin (eBioscience), as indicated. For CD107, a staining antibody was added to the culture during the stimulation. After 5 hrs, cells were fixed and permeabilized with BD™ Cytofix/Cytoperm reagent for cytokine staining. BD™ transcription factor buffer was used for Foxp3 and T-bet staining and BD™ Phosflow was used for p-SMAD2/3 and p-STAT staining (BD Biosciences) according to manufacturer's recommendations. After fixation/permeabilization, cells were stained with labeled antibodies of interest. Moreover, Il10 and β-actin mRNA expression were analyzed on single cell level by flow cytometry in combination with CD45, IgA and IL-10 protein staining, using FlowRNA II Assay kit (Affymetrix eBioscience) according to manufacturer's protocols^9. Cells were analyzed on a Beckman Coulter Cyan ADP flow cytometer. Data were analyzed using FlowJo software (Treestar). Immune cell analysis of tumor-free mice of different genetic backgrounds (C57BL/6 and FVB) and different genetic ablations are shown in FIG. 15a-m.
Total RNA was extracted using an RNeasy Plus kit (Qiagen). RNA was reverse transcribed using an IScript kit (Biorad). Q-RT-PCR was performed using Ssofast EvaGreen supermix (Biorad) on a Biorad CFX96 machine. Primer sequences are listed below and generally were obtained from the NIH qPrimerDepot (http://mouseprimerdepot.nci.nih.gov). The relative expression levels of target genes were measured in triplicates and normalized against the level of RPL32 expression. Fold-difference (as relative mRNA expression) was calculated by the comparative CT method (2^(Ct(RPI,32-gene or interest))).

## O=C1[O][Pt]2([NH][C@@H]3CCCC[C@H]3[NH]2)[O]C1=O [oxaliplatin]
TRAMP-C2 tumors; B cell-containing Tcrβ−/− mice
  TRAMP-C2 tumor rejection, oxaliplatin combined with ATCT: no tumor rejection took place
TRAMP-C2 tumors; Rag1−/−, OT-1 mice (no B cells)
  TRAMP-C2 tumor growth, ATCT together with oxaliplatin: tumor growth was inhibited
Myc-Cap (MC) cells; 24 hrs, both at 20 µM
  apoptotic cell death of MC cells (Annexin V, propidium iodide): induced apoptotic cell death
Myc-Cap (MC) cells; MC cells, 24 hrs, 20 µM, compared with cisplatin
  stimulation of autophagy (LC3A): more effective in stimulating autophagy
Myc-Cap (MC) cells; Myc-Cap cells, oxaliplatin 40 μM, 48 hrs, flow cytometry
  cells positive for Annexin V and PI (extent of cell death): more than 90%
Serum IgA, IgG
  serum IgA: increased serum IgA
  serum IgG: little effect on serum IgG
[1]
  IgA production and other immune parameters: no effect
Myc-Cap (MC) tumors; Cd8a−/− mice
  response of MC tumors: No response
Myc-Cap (MC) tumors; Iga−/− mice versus WT
  response of MC tumors to oxaliplatin with IgA ablation: potentiated the response to oxaliplatin
Myc-Cap (MC) tumors; LD, 6 mg/kg, 3 weekly cycles, tumors 400 mm3
  regression of MC tumors raised in Jh−/− mice: led to regression of MC tumors
Myc-Cap (MC) tumors; MC tumors in Rag1−/− mice
  tumor regression and CTL activation after T cell ± B cell transfer: induced tumor regression and CTL activation only in mice receiving T cells, or T cells+TGFβR2-deficient B cells
Myc-Cap (MC) tumors; WT and Jh−/− mice
  tumor infiltration with CD45+ cells: enhanced tumor infiltration with CD45^+ cells
Myc-Cap (MC) tumors; WT mice, early treatment
  response of small MC tumors (≤100 mm3): chemotherapy responsive
Myc-Cap (MC) tumors; WT versus Jh−/− mice, late treatment
  response of large MC tumors (≥350-400 mm3): shrank upon oxaliplatin treatment only in Jh^−/− mice
Myc-Cap (MC) tumors; associated with oxaliplatin responsiveness
  caspase 3 activation in tumors (apoptosis): enhanced caspase 3 activation
Myc-Cap (MC) tumors; regardless of host genotype
  tumoral DNA damage response (histone H2AX phosphorylation): similarly activated
TRAMP prostate tumors; B cell-deficient TRAMP, Jh−/− mice
  PC growth, late treatment: remained oxaliplatin sensitive
TRAMP prostate tumors; LD oxaliplatin weekly, dependent on CTL
  TRAMP mouse survival: enhanced TRAMP mouse survival
TRAMP prostate tumors; Rag1−/− mice receiving T and B cells
  prostate tumor regression 30 days after lymphocyte transfer: led to tumor regression
TRAMP prostate tumors; Rag1−/− mice receiving only T cells
  prostate tumor regression 30 days after lymphocyte transfer: complete tumor regression
TRAMP prostate tumors; WT TRAMP mice, 6 mg/kg weekly, late treatment
  response of ≥0.7 g tumors to late chemotherapy: largely resistant
TRAMP prostate tumors; early treatment, regardless of B cell status
  response of early (≤0.2 g) TRAMP tumors: responded
[2]; MC tumors
  IL-21 expression in tumors: increased IL-21 expression
  Il10 mRNA expression in tumors: increased Il10 mRNA expression
  STAT3 phosphorylation in tumoral B cells: enhanced STAT3 phosphorylation
  proportion of tumoral B cells undergoing TGFβ signaling (p-SMAD2/3, Tgfb1 mRNA): increased the proportion of tumoral B cells undergoing TGFβ signaling
[2]; MC tumors in Jh−/− mice, oxaliplatin versus cisplatin
  abundance of tumor infiltrating CD8+ and CD4+ cells: increased the abundance
[2]; MC tumors, WT and Jh−/− mice, no differences between them
  induction of Nos2, Arg1, IL-12p35 and IL-12p40: induced other immunoregulatory molecules
[2]; TRAMP and MC tumors
  induction of Fas-L and PD-L1 on tumoral B cells: induced Fas ligand (Fas-L) and PD ligand 1 (PD-L1)
[2]; TRAMP and TRAMP, Jh−/− mice
  CD8+ cell recruitment into tumors: stimulated CD8^+ cell recruitment
[2]; TRAMP tumors
  abundance of LTα/β-producing B cells: barely increased
  oxaliplatin-induced IgA+ cells expressing both PD-L1 and IL-10: about 40%
[2]; WT mice bearing MC tumors
  amount of splenic IgA+ cells: modestly increased
[2]; after 3-4 cycles of oxaliplatin treatment
  tumoral B cells that were CD19+B220lowCD138+ plasma cells: at least 40%
[2]; after 3-4 cycles, depending on the tumor model used
  plasma cells that expressed IgA: 40-80%
[2]; after additional cycles
  abundance of IgA+ B cells among B220low cells: ~80%
[2]; after oxaliplatin
  IgA+ B cells expressing both Fas-L and PD-L1: about 50%
[2]; after oxaliplatin cycles
  number of tumoral B220+CD19+ B cells: greatly increased
[2]; after oxaliplatin treatment
  IgA+CD19+ plasmocytes containing both IL-10 mRNA and protein: 50%
[2]; after the first oxaliplatin cycle
  time at which IgA+ B cells became detectable: 48 h
